Measurements published in US8609836B2, “4-aryl-2-anilino-pyrimidines” (Janssen Pharmaceutica NV, priority 2008, dated 2013).

Assays:
PLK1 T210D (h) = PLK1 T210D (h) (Homo sapiens, UniProt P53350, T210D); assay: PLK1 human kinase inhibition, SPA; assay type: biochemical; conditions: read-out: PLK1 pIC50 (converted)
How it was run: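 Kinase incubated 40 min at room temperature with 0.1 μM ATP (2 nM [γ-33P]ATP tracer), 2 μM biotinylated peptide, pH 8.0 Hepes buffer with 2 mM MnCl2 and 1 mM DTT; enzyme at 0.125 ng/ml. Stopped with EDTA; 33P-peptide bound to streptavidin scintillant beads and imaged.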

HCT-116 = assay: Cellular proliferation assay (Alamar blue), HCT-116; assay type: cell-based; conditions: Homo sapiens, 10% FCS, 72 hours with compound, Alamar blue 4 h
How it was run: (§1)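 Alamar blue fluorescence (544/590 nm) measured viable cells after 72 h compound exposure; dye incubation 4 h (HCT-116), 6 h (U87-MG) or 24 h (A2780, MDA-MB-231). Cells pre-seeded 24 h, grown in 10% FCS, 37° C, 5% CO2; effect expressed relative to control cells.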

H1299 = assay: Cellular proliferation assay (Alamar blue), H1299; assay type: cell-based; conditions: Homo sapiens, NCI-H1299; 10% FCS; 72 hours with compound; Alamar blue 4 h
How it was run: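 This proliferation assay on NCI-H1299 cells used an initial 24-hour compound-free incubation after seeding, followed by 72 hours of compound treatment with 10% FCS serum at 37° C. and 5% (v/v) CO2. Viable cells were quantified by a 4 h Alamar blue incubation and fluorescent plate reading at 544 nm/590 nm, and effects were expressed relative to control cells.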

GSK3β (h) = GSK3β (h) (Homo sapiens, UniProt P49841); assay: GSK-3β human kinase inhibition, SPA; assay type: biochemical; conditions: read-out: GSK3b pIC50 (converted)
How it was run: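 Radiometric: 33P-labelled peptide captured on streptavidin SPA beads after EDTA stop and imaged on Leadseeker. Reaction ran 1 h at RT, 1 μM cold ATP with 2 nM [γ-33P]ATP, 1 μM biotin-peptide substrate, human GSK3β 1 μg/ml, pH 7.4 Tris buffer.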

CDK4/CyclinD1 (h) = CDK4/CyclinD1 (h) (Homo sapiens, UniProt P11802); assay: CDK4/CyclinD1 human kinase inhibition, SPA with GST-pRb substrate; assay type: biochemical; conditions: read-out: CDK4 pIC50 (converted)
How it was run: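 Scintillation proximity format: after EDTA/Triton stop containing glutathione SPA beads, 33P incorporation was counted. The reaction ran 60 min at room temperature in Hepes pH 7.5 with NaF, MgCl2, DTT, using 2.5 μg/ml human CDK4/CyclinD1, 40 μg/ml GST-pRb substrate and 2 nM [γ-33P]ATP.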

U87-MG = assay: Cellular proliferation assay (Alamar blue), U87-MG; assay type: cell-based; conditions: Homo sapiens, U-87 MG; 10% FCS; 72 hours with compound; Alamar blue 6 h; read-out: U87-MG (cellular proliferation assay, Table 4) (converted)
How it was run: as §1

PLK3 (h) = PLK3 (h) (Homo sapiens, UniProt Q9H4B4); assay: PLK3 human kinase inhibition, SPA; assay type: biochemical; conditions: read-out: PLK3 pIC50 (converted)
How it was run: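 Radiometric scintillation proximity format at pH 8.0 (Hepes, MnCl2, DTT). The 2 μM biotin-peptide substrate is phosphorylated by PLK3 (h) (30 μg/ml) using 0.1 μM ATP traced with 33P, for 20 min at room temperature. EDTA stop; phosphopeptide captured on streptavidin beads and imaged.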

A2780 = assay: Cellular proliferation assay (Alamar blue), A2780; assay type: cell-based; conditions: Homo sapiens, 10% FCS, 72 hours with compound, Alamar blue 24 h, read-out: A2780 (cellular proliferation assay, Table 4) (converted)
How it was run: as §1

PLK2 (h) = PLK2 (h) (Homo sapiens, UniProt Q9NYY3); assay: PLK2 human kinase inhibition, SPA; assay type: biochemical; conditions: read-out: PLK2 pIC50 (converted)
How it was run: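 33P incorporation into a biotinylated peptide (2 μM) was captured on streptavidin PVT beads and imaged on Leadseeker. Enzyme at 30 μg/ml, ATP 0.1 μM with 2 nM [γ-33P]ATP, Hepes pH 8.0 with MnCl2 and DTT. Incubation was 20 min at room temperature.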

Sequence of PLK1 T210D (h) (P53350 whole entry T210D): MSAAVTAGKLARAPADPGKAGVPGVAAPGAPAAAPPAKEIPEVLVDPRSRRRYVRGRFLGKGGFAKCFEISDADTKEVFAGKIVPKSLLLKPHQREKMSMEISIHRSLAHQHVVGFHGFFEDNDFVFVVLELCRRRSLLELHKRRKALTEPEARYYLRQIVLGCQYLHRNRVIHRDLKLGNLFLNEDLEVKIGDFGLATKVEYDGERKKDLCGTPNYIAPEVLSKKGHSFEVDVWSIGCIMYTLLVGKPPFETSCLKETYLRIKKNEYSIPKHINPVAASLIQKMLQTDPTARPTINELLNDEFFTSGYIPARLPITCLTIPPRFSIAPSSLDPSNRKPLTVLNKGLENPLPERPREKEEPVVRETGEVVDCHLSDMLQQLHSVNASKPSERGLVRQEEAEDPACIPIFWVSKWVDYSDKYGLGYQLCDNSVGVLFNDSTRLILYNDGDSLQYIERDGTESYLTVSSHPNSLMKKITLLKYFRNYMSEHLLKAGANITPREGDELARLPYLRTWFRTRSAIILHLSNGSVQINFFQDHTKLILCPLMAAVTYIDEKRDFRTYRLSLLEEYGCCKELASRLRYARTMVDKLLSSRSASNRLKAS
Sequence of GSK3β (h) (P49841 whole entry): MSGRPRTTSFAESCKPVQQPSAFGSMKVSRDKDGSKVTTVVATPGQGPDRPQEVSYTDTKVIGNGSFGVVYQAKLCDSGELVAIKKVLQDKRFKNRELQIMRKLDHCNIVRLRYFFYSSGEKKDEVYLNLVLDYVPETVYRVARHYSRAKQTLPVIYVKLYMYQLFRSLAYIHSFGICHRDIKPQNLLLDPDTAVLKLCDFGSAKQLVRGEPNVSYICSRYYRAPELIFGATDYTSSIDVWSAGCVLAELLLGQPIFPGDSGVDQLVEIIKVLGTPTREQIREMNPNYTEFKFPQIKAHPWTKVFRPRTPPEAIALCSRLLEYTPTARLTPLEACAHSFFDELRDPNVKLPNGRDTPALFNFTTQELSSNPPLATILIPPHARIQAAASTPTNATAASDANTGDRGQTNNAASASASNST
Sequence of PLK2 (h) (Q9NYY3 whole entry): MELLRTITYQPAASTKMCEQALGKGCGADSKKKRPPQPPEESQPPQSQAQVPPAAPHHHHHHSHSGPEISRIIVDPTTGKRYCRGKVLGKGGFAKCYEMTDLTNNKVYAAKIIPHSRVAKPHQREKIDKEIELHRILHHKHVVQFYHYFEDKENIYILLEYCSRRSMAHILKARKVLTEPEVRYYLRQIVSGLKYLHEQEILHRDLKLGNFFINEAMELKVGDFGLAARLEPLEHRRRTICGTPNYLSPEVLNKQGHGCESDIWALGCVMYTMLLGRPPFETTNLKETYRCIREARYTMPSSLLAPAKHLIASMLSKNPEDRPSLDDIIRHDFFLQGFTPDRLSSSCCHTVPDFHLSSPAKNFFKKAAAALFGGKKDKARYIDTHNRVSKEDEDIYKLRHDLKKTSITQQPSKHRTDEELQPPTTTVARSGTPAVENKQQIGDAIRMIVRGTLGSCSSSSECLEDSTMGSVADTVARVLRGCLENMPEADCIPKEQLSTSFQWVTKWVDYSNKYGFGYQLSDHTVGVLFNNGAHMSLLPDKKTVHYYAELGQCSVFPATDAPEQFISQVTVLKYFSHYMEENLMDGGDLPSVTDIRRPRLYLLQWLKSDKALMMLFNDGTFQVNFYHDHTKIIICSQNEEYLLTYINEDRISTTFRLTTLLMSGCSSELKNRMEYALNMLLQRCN
Sequence of CDK4/CyclinD1 (h) (P11802 whole entry): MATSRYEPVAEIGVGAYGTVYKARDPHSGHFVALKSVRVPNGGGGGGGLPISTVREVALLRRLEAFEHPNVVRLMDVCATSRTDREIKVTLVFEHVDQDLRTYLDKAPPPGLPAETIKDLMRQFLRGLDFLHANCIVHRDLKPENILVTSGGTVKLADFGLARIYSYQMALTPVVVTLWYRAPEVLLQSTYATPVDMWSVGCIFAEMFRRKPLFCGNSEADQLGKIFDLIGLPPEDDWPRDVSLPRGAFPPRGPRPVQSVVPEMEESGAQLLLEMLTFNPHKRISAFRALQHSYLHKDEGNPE
Sequence of CDK4/CyclinD1 (h) (P24385 whole entry partner): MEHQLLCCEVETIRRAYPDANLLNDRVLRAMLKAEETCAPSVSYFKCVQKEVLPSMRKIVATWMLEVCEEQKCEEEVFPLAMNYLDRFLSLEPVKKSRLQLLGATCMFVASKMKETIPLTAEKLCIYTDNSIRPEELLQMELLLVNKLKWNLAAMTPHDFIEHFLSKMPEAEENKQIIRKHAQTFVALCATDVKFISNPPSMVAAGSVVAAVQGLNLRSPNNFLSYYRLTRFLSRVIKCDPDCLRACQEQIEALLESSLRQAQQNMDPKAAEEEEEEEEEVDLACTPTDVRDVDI
Sequence of PLK3 (h) (Q9H4B4 whole entry): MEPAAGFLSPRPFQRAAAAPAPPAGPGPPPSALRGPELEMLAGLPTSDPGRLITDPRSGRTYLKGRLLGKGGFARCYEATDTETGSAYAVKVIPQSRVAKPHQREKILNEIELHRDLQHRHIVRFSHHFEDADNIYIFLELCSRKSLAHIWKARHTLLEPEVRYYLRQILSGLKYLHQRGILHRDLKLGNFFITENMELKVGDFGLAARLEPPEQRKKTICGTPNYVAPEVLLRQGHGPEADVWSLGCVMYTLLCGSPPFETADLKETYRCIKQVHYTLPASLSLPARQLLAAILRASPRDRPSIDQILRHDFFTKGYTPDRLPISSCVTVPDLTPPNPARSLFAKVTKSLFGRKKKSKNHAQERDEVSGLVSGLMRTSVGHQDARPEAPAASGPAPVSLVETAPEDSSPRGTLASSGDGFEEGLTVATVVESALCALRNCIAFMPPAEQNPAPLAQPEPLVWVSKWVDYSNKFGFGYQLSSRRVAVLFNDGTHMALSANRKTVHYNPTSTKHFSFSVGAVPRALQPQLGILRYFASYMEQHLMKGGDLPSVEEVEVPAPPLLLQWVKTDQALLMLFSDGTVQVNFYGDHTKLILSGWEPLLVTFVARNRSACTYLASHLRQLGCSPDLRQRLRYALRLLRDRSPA

Structure (SMILES)	IC50 (PLK1 T210D (h)) [µM]	IC50 (HCT-116) [µM]	IC50 (H1299) [µM]	IC50 (GSK3β (h)) [µM]	IC50 (CDK4/CyclinD1 (h)) [µM]	IC50 (U87-MG) [µM]	IC50 (PLK3 (h)) [µM]	IC50 (A2780) [µM]	IC50 (PLK2 (h)) [µM]
O=C1NCc2cccc(c2)-c2ccnc(n2)Nc2ccc(N3CCOCC3)c(c2)CN2CCC[C@@H]12 [Compound 1]	> 10	3.8	6.92	0.724	2.14	6.76	> 10	2.34	> 10
COc1ccc2cc1CN1CCC(CC1)C(=O)N(C)CCN(C)c1ccc(cn1)-c1ccnc(n1)N2 [Compound 4]	> 10	5.25	> 10	3.63	1.91	> 10	> 10	> 10	> 10
C[C@@H]1NCc2cc(ccc2N2CCOCC2)Nc2nccc(n2)-c2ccc(cc2)OCCCNC1=O [Compound 5]	> 10	1.74	> 10	0.135	1.29	> 10	> 10	> 10	> 10
O=C1NCCOc2ccc(cc2)-c2ccnc(n2)Nc2ccc(N3CCOCC3)c(c2)CN2CCC1CC2 [Compound 6]	> 10	0.105	0.38	0.741	0.562	0.575	> 10	0.195	> 10
O=C1NCCCOc2ccc(cc2)-c2ccnc(n2)Nc2ccc(N3CCOCC3)c(c2)CN2CCC[C@@H]12 [Compound 7]	> 10	6.03	> 10	0.372	6.46	4.37	> 10	> 10	> 10
O=C1CN2CCN(CC2)Cc2cc(ccc2N2CCOCC2)Nc2nccc(n2)-c2ccc(cc2)OCCN1 [Compound 9]	> 10	7.76	> 10	1.45	7.94	1.55	> 10	> 10	> 10
CN1CCCNC(=O)[C@H](CO)NCc2cc(cc(N3CCOCC3)c2)Nc2nccc(n2)-c2ccc(cc2)C1 [Compound 10]	> 10	> 10	> 10	~10	> 10	> 10	> 10	> 10	> 10
COc1ccc2cc1CN1CCN(CC1)CC(=O)N(C)CCN(C)c1ccc(cn1)-c1ccnc(n1)N2 [Compound 14]	> 10	5.89	> 10	4.9	> 10	> 10	> 10	> 10	> 10
CN1CCCNC(=O)[C@@H]2CCCN2Cc2cc(cc(N3CCOCC3)c2)Nc2nccc(n2)-c2ccc(cc2)C1 [Compound 16]	> 10	> 10	> 10	> 10	> 10	8.13	> 10	9.55	> 10
O=C1NCCCc2cc(ccn2)-c2ccnc(n2)Nc2cccc(c2)CN[C@H]1CO [Compound 19]	> 10	0.724		0.0372	1.26	1.07	> 10	1.45	> 10
O=C1CN2CCN(CC2)Cc2cccc(c2)Nc2nccc(n2)-c2ccnc(c2)CCCN1 [Compound 21]	> 10	2.29		0.0166	1.29	2.82	> 10	7.59	> 10
